Among the data in ChEMBL document CHEMBL1128570, “Binding of 5H-dibenzo[a,d]cycloheptene and dibenz[b,f]oxepin analogues of clozapine to dopamine and serotonin receptors” (J Med Chem, 1995) are Ratio and Ki values, retold here.

Test [1] can be described thus: Ratio of Ki value towards dopamine D2L receptor to that of serotonin S-2A receptor.
Test [2] addresses T1, D(4) dopamine receptor (Homo sapiens, UniProt P21917).
T1 sequence (P21917 whole entry): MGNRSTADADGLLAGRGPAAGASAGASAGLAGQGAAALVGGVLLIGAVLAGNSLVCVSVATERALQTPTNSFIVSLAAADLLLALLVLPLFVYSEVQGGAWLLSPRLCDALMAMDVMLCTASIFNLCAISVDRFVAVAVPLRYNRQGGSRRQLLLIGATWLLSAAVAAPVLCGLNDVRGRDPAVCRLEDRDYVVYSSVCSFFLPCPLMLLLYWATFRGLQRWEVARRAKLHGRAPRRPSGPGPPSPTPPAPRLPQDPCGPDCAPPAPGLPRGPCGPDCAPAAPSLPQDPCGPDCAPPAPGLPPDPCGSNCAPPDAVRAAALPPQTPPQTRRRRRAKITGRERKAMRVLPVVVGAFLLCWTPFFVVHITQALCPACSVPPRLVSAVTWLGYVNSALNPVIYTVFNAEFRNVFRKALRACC
As to the kind of experiment: Ability to inhibit the binding of [3H]spiperone to the Dopamine receptor D4 in COS7 cells. The test is classed as cell-based, COS-7.

For test [3], the target named is T2, 5-hydroxytryptamine receptor 2A (Rattus norvegicus, UniProt P14842). The experiment in a line: Ability to inhibit the binding of iodine-125-labelled lysergic acid diethylamide([125I]-LSD) to the S-2A serotonin receptor in NIH3T3 cell line membranes. The test is classed as cell-based.
Test [4] deals with T3, 5-hydroxytryptamine receptor 2C (Rattus norvegicus, UniProt P08909).
T3 sequence (P08909 whole entry): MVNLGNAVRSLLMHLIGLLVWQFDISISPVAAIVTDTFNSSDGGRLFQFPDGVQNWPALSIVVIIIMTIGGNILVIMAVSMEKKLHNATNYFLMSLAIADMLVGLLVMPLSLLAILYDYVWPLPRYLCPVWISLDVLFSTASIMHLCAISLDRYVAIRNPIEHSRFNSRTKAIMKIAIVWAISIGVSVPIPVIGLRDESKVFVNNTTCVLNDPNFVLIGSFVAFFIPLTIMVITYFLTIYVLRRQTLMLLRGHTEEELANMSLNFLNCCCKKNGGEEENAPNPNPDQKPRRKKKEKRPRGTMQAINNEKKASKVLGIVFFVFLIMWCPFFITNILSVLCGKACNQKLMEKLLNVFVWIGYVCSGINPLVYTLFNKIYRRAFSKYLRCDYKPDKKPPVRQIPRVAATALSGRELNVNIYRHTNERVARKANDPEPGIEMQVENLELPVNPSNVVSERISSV
As to the kind of experiment: Ability to inhibit the binding of iodine-125-labelled lysergic acid diethylamide([125I]-LSD) to the S-2C serotonin receptor in NIH3T3 cell line membranes. The test is classed as cell-based.

The target of test [5] is D(2) dopamine receptor (Homo sapiens, UniProt P14416). The experiment in a line: Ability to inhibit the binding of [3H]spiperone to the Dopamine receptor D2L in COS7 cells. The test is classed as cell-based, COS-7.
In test [6] the target is T3, 5-hydroxytryptamine receptor 2C. The experiment in a line: Ability to inhibit the binding of iodine-125-labelled lysergic acid diethylamide([125I]-LSD) to the S-2C serotonin receptor.
Test [7] concerns the target T2, 5-hydroxytryptamine receptor 2A. The experiment in a line: Ability to inhibit the binding of iodine-125-labelled lysergic acid diethylamide([125I]-LSD) to the S-2A serotonin receptor.

D(2) dopamine receptor, sequence (P14416 whole entry): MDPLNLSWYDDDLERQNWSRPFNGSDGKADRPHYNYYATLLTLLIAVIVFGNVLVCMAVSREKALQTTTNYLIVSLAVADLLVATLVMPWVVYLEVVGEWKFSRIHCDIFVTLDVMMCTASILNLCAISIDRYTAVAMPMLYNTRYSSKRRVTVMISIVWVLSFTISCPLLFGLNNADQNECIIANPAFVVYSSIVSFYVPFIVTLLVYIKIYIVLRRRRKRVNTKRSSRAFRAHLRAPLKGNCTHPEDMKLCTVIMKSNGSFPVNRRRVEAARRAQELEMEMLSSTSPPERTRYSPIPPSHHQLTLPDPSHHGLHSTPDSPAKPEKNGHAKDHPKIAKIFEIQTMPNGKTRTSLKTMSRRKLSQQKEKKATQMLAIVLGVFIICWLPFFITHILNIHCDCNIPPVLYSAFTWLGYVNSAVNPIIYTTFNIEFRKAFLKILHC
T2 sequence (P14842 whole entry): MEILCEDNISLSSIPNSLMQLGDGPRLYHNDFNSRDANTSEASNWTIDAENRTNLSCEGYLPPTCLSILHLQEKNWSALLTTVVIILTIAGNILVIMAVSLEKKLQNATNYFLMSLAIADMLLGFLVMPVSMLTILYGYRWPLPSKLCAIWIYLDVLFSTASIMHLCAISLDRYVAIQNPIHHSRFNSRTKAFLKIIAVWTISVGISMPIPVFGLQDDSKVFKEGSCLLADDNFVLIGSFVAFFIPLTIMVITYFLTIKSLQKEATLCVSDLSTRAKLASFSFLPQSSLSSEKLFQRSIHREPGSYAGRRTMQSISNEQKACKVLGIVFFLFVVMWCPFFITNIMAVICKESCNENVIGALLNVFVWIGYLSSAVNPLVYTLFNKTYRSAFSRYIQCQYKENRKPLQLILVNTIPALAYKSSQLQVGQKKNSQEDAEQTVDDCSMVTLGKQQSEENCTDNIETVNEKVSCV

As for `CN1CCN(C2=Cc3ccccc3Oc3ccc(Cl)cc32)CC1`, the Ratio in test [1] was 0.8.
Regarding `C=CCN1CC=C(C2=Cc3ccccc3Oc3ccccc32)CC1`, the Ki (as a rule, the equilibrium dissociation constant of an inhibitor or competing ligand from its target) was 37 nM in test [2], 22 nM in test [3], 51 nM in test [4] and 110 nM in test [5]. Moreover, in test [1], the Ratio was 5.
Turning to `CC(C)=C1c2ccccc2C=C(C2=CCN(C)CC2)c2ccccc21`, the Ratio in test [1] is 0.48.
As for `CC(C)=C1c2ccccc2C=C(C2=CCN(C)CC2)c2cc(Cl)ccc21`, the Ki was 100 nM in test [2], 1200 nM in test [6], 440 nM in test [5] and 760 nM in test [7]. In addition, the Ratio in test [1] is 0.58.
Turning to `CN1CCN(C2=Cc3ccccc3Oc3ccccc32)CC1`, the Ratio in test [1] amounted to 5.
For `C=CCN1CC=C(C2=Cc3ccccc3Cc3ccccc32)CC1`, the Ki was 60 nM in test [2], 46 nM in test [6], 83 nM in test [5] and 20 nM in test [7]. Also, the Ratio in test [1] came out at 4.2.
In the same order, the values of `CN1CC=C(C2=Cc3ccccc3Cc3ccccc32)CC1` are 12 nM, 14 nM, 89 nM, 6 nM and 15.
Turning to `CN1CC=C(C2=Cc3ccccc3Oc3ccccc32)CC1`, the values for the Ki in test [2], in test [3] and in test [4] were 29 nM, 6 nM and 20 nM, respectively.
Turning to `CN1CCC(C2=Cc3ccccc3Oc3ccccc32)CC1`, the Ki was 9.5 nM in test [2], 3 nM in test [3], 8 nM in test [4] and 82 nM in test [5]. Also, the Ratio in test [1] was determined as 30.
In the case of `CC1c2ccccc2C=C(C2=CCN(C)CC2)c2ccccc21` (configuration not stated), in test [1], the Ratio amounted to 9.4.
In the case of `CCN1CC=C(C2=Cc3ccccc3Oc3ccccc32)CC1`, the Ki in test [2] turned out to be 26 nM; in test [3] it was 6 nM; in test [4], 14 nM; in test [5], 61 nM. Further, the Ratio in test [1] came out at 10.
As for `CCN1CC=C(C2=Cc3ccccc3Cc3ccccc32)CC1`, the Ki in test [2] was 28 nM; in test [6], 7 nM; in test [5], 44 nM; in test [7] it was 4.5 nM. Also, the Ratio in test [1] is 9.8.
